From ChEMBL document CHEMBL2157893, “A potent and orally active antagonist (SM-406/AT-406) of multiple inhibitor of apoptosis proteins (IAPs) in clinical development for cancer treatment” (J Med Chem, 2011)
The source made the active and inactive calls. No cut-off for these calls is given here.

Columns and labels:
Mus musculus [1] = experiment: Induction of degradation of cIAP1 in human MDA-MB-231 cells xenografted in SCID mouse at 7.5 mg/kg, iv administered as single dose measured after 24 hrs by Western blot analysis; format: functional, organism-based; set-up: dose 7.5 mg/kg
Mus musculus [2] = experiment: Induction of PARP cleavage in human MDA-MB-231 cells xenografted in SCID mouse at 7.5 mg/kg, iv administered as single dose measured after 24 hrs by Western blot analysis; format: functional, organism-based; set-up: dose 7.5 mg/kg
Mus musculus [3] = experiment: Induction of procaspase-8 processing in human MDA-MB-231 cells xenografted in SCID mouse at 7.5 mg/kg, iv administered as single dose measured after 24 hrs by Western blot analysis; format: functional, organism-based; set-up: dose 7.5 mg/kg
Mus musculus [4] = experiment: Toxicity in human MDA-MB-231 cells xenografted in SCID mouse assessed weight loss at 7.5 mg/kg, iv administered once/week for 2 weeks; details: in vivo, 336 h
MDA-MB-231 [5] = experiment: Antitumor activity against human MDA-MB-231 cells xenografted in SCID mouse assessed inhibition of tumor growth at 7.5 mg/kg, iv administered once/week for 2 weeks
MDA-MB-231 [6] = experiment: Antitumor activity against human MDA-MB-231 cells xenografted in SCID mouse assessed inhibition of tumor growth at 10 mg/kg, po administered daily for 5 days/week for 2 weeks; format: functional, organism-based; set-up: dose 10 mg/kg
MDA-MB-231 [7] = experiment: Antitumor activity against human MDA-MB-231 cells xenografted in SCID mouse assessed inhibition of tumor growth at 30 mg/kg, po administered daily for 5 days/week for 2 weeks; format: functional, organism-based; set-up: dose 30 mg/kg
MDA-MB-231 [8] = experiment: Antitumor activity against human MDA-MB-231 cells xenografted in SCID mouse assessed inhibition of tumor growth at 100 mg/kg, po administered daily for 5 days/week for 2 weeks; format: functional, organism-based; set-up: dose 100 mg/kg
MDA-MB-231 [9] = experiment: Induction of cell death in human MDA-MB-231 cells incubated for 24 hrs by trypan blue exclusion assay; format: functional, cell-based
MDA-MB-231 [10] = experiment: Induction of cell death in human MDA-MB-231 cells at 1 uM by trypan blue exclusion assay; format: functional, cell-based; details: TDE = time-dependent effect
MDA-MB-231 [11] = experiment: Induction of apoptosis in human MDA-MB-231 cells assessed as activation of caspase-3 activity at 1.5 uM after 12 hrs by Western blot analysis; format: functional, cell-based
MDA-MB-231 [12] = experiment: Induction of apoptosis in human MDA-MB-231 cells assessed as activation of PARP cleavage at 1.5 uM after 12 hrs by Western blot analysis; format: functional, cell-based
Mus musculus [13] = experiment: Induction of degradation of cIAP1 in human MDA-MB-231 cells xenografted in SCID mouse at 100 mg/kg, po administered as single dose measured after 2 hrs by Western blot analysis; format: functional, organism-based; set-up: dose 100 mg/kg
Mus musculus [14] = experiment: Induction of degradation of cIAP1 in human MDA-MB-231 cells xenografted in SCID mouse at 100 mg/kg, po administered as single dose measured after 16 hrs by Western blot analysis; format: functional, organism-based; set-up: dose 100 mg/kg
Mus musculus [15] = experiment: Induction of procaspase-8 processing in human MDA-MB-231 cells xenografted in SCID mouse at 100 mg/kg, po administered as single dose measured after 2 hrs by Western blot analysis; format: functional, organism-based; set-up: dose 100 mg/kg
Mus musculus [16] = experiment: Induction of procaspase-8 processing in human MDA-MB-231 cells xenografted in SCID mouse at 100 mg/kg, po administered as single dose measured after 6 hrs by Western blot analysis; format: functional, organism-based; set-up: dose 100 mg/kg
Mus musculus [17] = experiment: Induction of PARP cleavage in human MDA-MB-231 cells xenografted in SCID mouse at 100 mg/kg, po administered as single dose measured after 2 hrs by Western blot analysis; format: functional, organism-based; set-up: dose 100 mg/kg
Mus musculus [18] = experiment: Induction of PARP cleavage in human MDA-MB-231 cells xenografted in SCID mouse at 100 mg/kg, po administered as single dose measured after 6 hrs by Western blot analysis; format: functional, organism-based; set-up: dose 100 mg/kg
Mus musculus [19] = experiment: Induction of PARP cleavage in human MDA-MB-231 cells xenografted in SCID mouse at 100 mg/kg, po administered as single dose measured after 16 hrs by Western blot analysis; format: functional, organism-based; set-up: dose 100 mg/kg
[20] = target: E3 ubiquitin-protein ligase XIAP (Homo sapiens, UniProt P98170); experiment: Binding affinity to His6-tagged human XIAP BIR3 domain expressed in Escherichia coli BL21(DE3) assessed as dissociation constant after 2 to 3 hrs by fluorescence polarization assay
[21] = target: T1, Baculoviral IAP repeat-containing protein 2 (Homo sapiens, UniProt Q13490); experiment: Binding affinity to human cIAP1 BIR3 domain expressed in Escherichia coli BL21(DE3) assessed as dissociation constant after 2 to 3 hrs by fluorescence polarization assay
[22] = target: T1, Baculoviral IAP repeat-containing protein 2
Mus musculus [23] = experiment: AUC (0 to t) in mouse at 10 mg/kg, iv; format: ADME, organism-based, Plasma; set-up: dose 10 mg/kg, route intravenous; details: in vivo
Mus musculus [24] = experiment: AUC (0 to t) in mouse at 30 mg/kg, po; format: ADME, organism-based, Plasma; set-up: dose 30 mg/kg, route oral; details: in vivo
Mus musculus [25] = experiment: Half life in mouse at 10 mg/kg, iv; format: ADME, organism-based; set-up: dose 10 mg/kg, route intravenous; details: in vivo
Mus musculus [26] = experiment: Half life in mouse at 30 mg/kg, po; format: ADME, organism-based; set-up: dose 30 mg/kg, route oral; details: in vivo
Mus musculus [27] = experiment: Oral bioavailability in mouse at 30 mg/kg; format: ADME, organism-based; details: in vivo
Rattus norvegicus [28] = experiment: AUC (0 to t) in Sprague-Dawley rat at 25 mg/kg, po; format: ADME, organism-based, Plasma; set-up: dose 25 mg/kg, route oral; details: in vivo
Rattus norvegicus [29] = experiment: Half life in Sprague-Dawley rat at 5 mg/kg, iv; format: ADME, organism-based; set-up: dose 5 mg/kg, route intravenous; details: in vivo
Rattus norvegicus [30] = experiment: Half life in Sprague-Dawley rat at 25 mg/kg, po; format: ADME, organism-based; set-up: dose 25 mg/kg, route oral; details: in vivo
Rattus norvegicus [31] = experiment: Oral bioavailability in Sprague-Dawley rat at 25 mg/kg; format: ADME, organism-based; details: in vivo
Cynomolgus monkey [32] = experiment: AUC (0 to t) in cynomolgus monkey at 2.5 mg/kg, iv; format: ADME, organism-based, Macaca fascicularis, Plasma; set-up: dose 2.5 mg/kg, route intravenous; details: in vivo
Cynomolgus monkey [33] = experiment: AUC (0 to t) in cynomolgus monkey at 5 mg/kg, po; format: ADME, organism-based, Macaca fascicularis, Plasma; set-up: dose 5 mg/kg, route oral; details: in vivo
Cynomolgus monkey [34] = experiment: Half life in cynomolgus monkey at 2.5 mg/kg, iv; format: ADME, organism-based, Macaca fascicularis; set-up: dose 2.5 mg/kg, route intravenous; details: in vivo
Cynomolgus monkey [35] = experiment: Half life in cynomolgus monkey at 5 mg/kg, po; format: ADME, organism-based, Macaca fascicularis; set-up: dose 5 mg/kg, route oral; details: in vivo
Cynomolgus monkey [36] = experiment: Oral bioavailability in cynomolgus monkey at 5 mg/kg; format: ADME, organism-based, Macaca fascicularis; details: in vivo
Canis familiaris [37] = experiment: AUC (0 to t) in beagle dog at 5 mg/kg, iv; format: ADME, organism-based, Canis lupus familiaris, Plasma; set-up: dose 5 mg/kg, route intravenous; details: in vivo
Canis familiaris [38] = experiment: AUC (0 to t) in beagle dog at 10 mg/kg, po; format: ADME, organism-based, Canis lupus familiaris, Plasma; set-up: dose 10 mg/kg, route oral; details: in vivo
Canis familiaris [39] = experiment: Half life in beagle dog at 5 mg/kg, iv; format: ADME, organism-based, Canis lupus familiaris; set-up: dose 5 mg/kg, route intravenous; details: in vivo
Canis familiaris [40] = experiment: Half life in beagle dog at 10 mg/kg, po; format: ADME, organism-based, Canis lupus familiaris; set-up: dose 10 mg/kg, route oral; details: in vivo
Canis familiaris [41] = experiment: Oral bioavailability in beagle dog at 10 mg/kg; format: ADME, organism-based, Canis lupus familiaris; details: in vivo

T1 sequence (Q13490 whole entry, the tested form may be a part): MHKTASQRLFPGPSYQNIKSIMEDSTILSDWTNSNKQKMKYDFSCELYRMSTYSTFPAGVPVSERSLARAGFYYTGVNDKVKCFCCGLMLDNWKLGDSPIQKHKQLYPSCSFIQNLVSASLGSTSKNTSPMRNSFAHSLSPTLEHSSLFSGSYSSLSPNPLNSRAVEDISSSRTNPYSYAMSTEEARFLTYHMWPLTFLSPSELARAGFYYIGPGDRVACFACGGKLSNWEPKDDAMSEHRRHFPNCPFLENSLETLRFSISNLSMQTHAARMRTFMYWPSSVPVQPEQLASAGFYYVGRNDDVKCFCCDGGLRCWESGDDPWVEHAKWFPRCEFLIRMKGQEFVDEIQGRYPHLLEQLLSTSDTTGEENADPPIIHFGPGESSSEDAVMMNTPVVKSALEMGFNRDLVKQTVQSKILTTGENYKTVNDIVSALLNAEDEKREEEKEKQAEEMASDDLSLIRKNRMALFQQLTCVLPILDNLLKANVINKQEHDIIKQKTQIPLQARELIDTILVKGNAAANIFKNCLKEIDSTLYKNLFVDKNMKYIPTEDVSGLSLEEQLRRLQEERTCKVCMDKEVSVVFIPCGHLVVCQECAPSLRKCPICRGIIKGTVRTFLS
Sequence of E3 ubiquitin-protein ligase XIAP (P98170 whole entry, the tested form may be a part): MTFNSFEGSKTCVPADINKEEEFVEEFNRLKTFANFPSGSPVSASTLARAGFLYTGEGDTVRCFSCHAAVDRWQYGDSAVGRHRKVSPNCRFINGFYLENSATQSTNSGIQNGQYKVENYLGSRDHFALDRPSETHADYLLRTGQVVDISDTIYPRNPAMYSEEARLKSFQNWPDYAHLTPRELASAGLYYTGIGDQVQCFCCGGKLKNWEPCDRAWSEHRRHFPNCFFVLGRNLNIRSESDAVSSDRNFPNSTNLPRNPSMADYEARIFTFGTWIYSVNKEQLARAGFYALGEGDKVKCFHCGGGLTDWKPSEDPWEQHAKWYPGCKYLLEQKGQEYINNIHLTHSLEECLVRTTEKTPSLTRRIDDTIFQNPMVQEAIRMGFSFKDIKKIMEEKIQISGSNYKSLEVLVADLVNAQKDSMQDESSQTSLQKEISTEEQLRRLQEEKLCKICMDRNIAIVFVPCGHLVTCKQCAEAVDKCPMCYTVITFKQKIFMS

## CC(=O)O[C@@]12CO[C@@H]1C[C@H](O)[C@@]1(C)C(=O)[C@H](O)C3=C(C)[C@@H](OC(=O)[C@H](O)[C@@H](NC(=O)OC(C)(C)C)c4ccccc4)C[C@@](O)([C@@H](OC(=O)c4ccccc4)[C@H]21)C3(C)C.O.O.O [DOCETAXEL]
Mus musculus [1]
  Activity: inactive
Mus musculus [2]
  Activity: inactive
Mus musculus [3]
  Activity: Active
Mus musculus [4]
  Activity: Toxic
MDA-MB-231 [5]
  TGI: Active

## CN[C@@H](C)C(=O)N[C@H]1CN(C(=O)CC(C)C)CC[C@H]2CC[C@@H](C(=O)NC(c3ccccc3)c3ccccc3)N2C1=O
MDA-MB-231 [6]
  TGI: inactive
MDA-MB-231 [7]
  TGI: Active
MDA-MB-231 [8]
  TGI: Active
MDA-MB-231 [9]
  Activity: Dose-dependent effect
MDA-MB-231 [10]
  Activity: tde
MDA-MB-231 [11]
  Activity: Active
MDA-MB-231 [12]
  Activity: Active
Mus musculus [13]
  Activity: Active
Mus musculus [14]
  Activity: Active
Mus musculus [15]
  Activity: Active
Mus musculus [16]
  Activity: Active
Mus musculus [17]
  Activity: Active
Mus musculus [18]
  Activity: Active
Mus musculus [19]
  Activity: Active

## CN[C@@H](C)C(=O)N[C@H]1CN(C(=O)CC(C)C)CC[C@H]2CC[C@@H](C(=O)N[C@@H](c3ccccc3)c3cn(CCCCCCCCCCNC(=O)c4ccc(-c5c6ccc(=O)cc-6oc6cc(O)ccc56)c(C(=O)O)c4)nn3)N2C1=O
[20]
  Kd: 4.4 nM
[21]
  Kd: 0.7 nM

## CN[C@@H](C)C(=O)N[C@H]1CN(C(=O)CC(C)C)CC[C@H]2CC[C@@H](C(=O)N[C@@H](c3ccccc3)c3cn(CCCCCCCCCCNC(=O)CCCCCNC(=O)CCCC[C@@H]4SC[C@@H]5NC(=O)N[C@@H]54)nn3)N2C1=O
[22]
  Ki: < 1 nM

## CN[C@@H](C)C(=O)N[C@H]1CN(C(=O)CC(C)C)CC[C@H]2CC[C@@H](C(=O)NC(c3ccccc3)c3ccccc3)N2C1=O.Cl
Mus musculus [23]
  AUCt: 3800 ng·h/mL
Mus musculus [24]
  AUCt: 4300 ng·h/mL
Mus musculus [25]
  t1/2: 3 h
Mus musculus [26]
  t1/2: 2.3 h
Mus musculus [27]
  F: 38%
Rattus norvegicus [28]
  AUCt: 2300 ng·h/mL
Rattus norvegicus [29]
  t1/2: 1.4 h
Rattus norvegicus [30]
  t1/2: 1.8 h
Rattus norvegicus [31]
  F: 45%
Cynomolgus monkey [32]
  AUCt: 17900 ng·h/mL
Cynomolgus monkey [33]
  AUCt: 13500 ng·h/mL
Cynomolgus monkey [34]
  t1/2: 6.3 h
Cynomolgus monkey [35]
  t1/2: 5.4 h
Cynomolgus monkey [36]
  F: 42%
Canis familiaris [37]
  AUCt: 81600 ng·h/mL
Canis familiaris [38]
  AUCt: 90300 ng·h/mL
Canis familiaris [39]
  t1/2: 16.3 h
Canis familiaris [40]
  t1/2: 27.1 h
Canis familiaris [41]
  F: 55%
